# Patent US20240382489A1, “LIQUID PHARMACEUTICAL COMPOSITION” (Verona Pharma PLC, priority 2023, published 2024)
# System: patients aged 40-80 years with moderate to severe COPD
# Test: Clinical study of nebulised ensifentrine vs placebo in COPD: lung function (FEV1)
# Assay type: in vivo, human
# Details: 3 mg BID by nebuliser
# Method: A clinical study was conducted to determine the efficacy of ensifentrine in treating COPD compared with placebo. Ensifentrine was administered by nebuliser at a dose of 3 mg twice daily (BID) for 24 weeks. The study was a multi-centre, randomized, double-blind, parallel-group, placebo-controlled trial with around 800 patients and 5:3 randomization.
# The study population included patients aged 40-80 years with moderate to severe COPD (FEV130%-70% p.n., FEV1/forced vital capacity (FVC) ratio<0.7, with mMRC≥2). The randomization stratified (a) the use of stable background maintenance LAMA or LABA therapy use (approx. 50%. yes or no) and (b) cigarette smoking (current or former). Inhaled corticosteroid (ICS) maintenance therapy was permitted in up to 20% of patients under certain provisions.
# The primary endpoint of the study was change from baseline in average FEV1 area under the curve (AUC)0-12 h post-dose at week 12. Secondary endpoints of the study included: peak FEV1 over 4 hours post-dose at Week 12; morning trough FEV1 at Week 12; and other endpoints including moderate/severe COPD exacerbations frequency over 24 Weeks.
# Baseline FEV1 is the mean of the two measurements taken before study medication on the day of first dosing, i.e., ≤40 minutes and just prior to dosing, both pre-dose on day 1. […]
structure (smiles),measurement,value
"COc1cc2c(cc1OC)-c1c/c(=N\c3c(C)cc(C)cc3C)n(CCNC(N)=O)c(=O)n1CC2 [Ensifentrine, N-(2-{(2E)-9,10-dimethoxy-4-oxo-2-[(2,4,6-trimethylphenyl)imino]-6,7-dihydro-2H-pyrimido[6,1-a]isoquinolin-3(4H)-yl}ethyl)urea]",improvement in lung function in all subgroups of COPD patients,statistically significant improvement in lung function
